Experimental findings from patent US20170196859A1, “PHARMACEUTICAL COMPOSITION COMPRISING PYRAZINE CARBOXAMIDE COMPOUND AS ACTIVE INGREDIENT” (Astellas Pharma Inc., priority 2014, published 2017) are described below.

In this assay the target is T1, ITK kinase (Homo sapiens, UniProt Q08881).
T1 sequence (Q08881 1-620): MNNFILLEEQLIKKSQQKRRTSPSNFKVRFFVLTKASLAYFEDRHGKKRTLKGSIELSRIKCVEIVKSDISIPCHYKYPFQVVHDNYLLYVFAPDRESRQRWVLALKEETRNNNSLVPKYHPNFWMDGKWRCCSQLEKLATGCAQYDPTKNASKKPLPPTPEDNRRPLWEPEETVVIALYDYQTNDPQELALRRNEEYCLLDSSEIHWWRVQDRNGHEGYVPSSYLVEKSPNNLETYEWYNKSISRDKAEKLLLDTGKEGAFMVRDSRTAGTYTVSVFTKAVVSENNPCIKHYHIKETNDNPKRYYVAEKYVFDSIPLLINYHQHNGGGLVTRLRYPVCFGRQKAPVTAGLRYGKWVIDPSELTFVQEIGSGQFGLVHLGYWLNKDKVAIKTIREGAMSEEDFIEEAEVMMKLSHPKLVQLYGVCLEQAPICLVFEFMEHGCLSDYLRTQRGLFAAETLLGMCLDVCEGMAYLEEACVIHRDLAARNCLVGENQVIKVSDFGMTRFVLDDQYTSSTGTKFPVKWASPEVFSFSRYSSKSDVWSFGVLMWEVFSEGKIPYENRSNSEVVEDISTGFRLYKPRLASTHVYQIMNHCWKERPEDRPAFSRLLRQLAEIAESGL
The assay can be described thus: ITK kinase inhibitory activity (Mobility Shift Assay). Format: biochemical. The following applies: ATP 1000 μM, read-out: inhibitory % against ITK kinase activity. As for the experimental part: The ITK kinase inhibitory activity was evaluated using Mobility Shift Assay system.
The test compound B was dissolved in dimethyl sulfoxide (DMSO) to prepare a solution at a 100-fold concentration as compared to the test concentration. The solution was also 25-fold diluted with an assay buffer (20 mM HEPES, 0.01% Triton X-100, 1 mM DTT, pH 7.5) to obtain a test substance solution.
5 μL of the test compound B solution at a 4-fold concentration, prepared using the aforementioned assay buffer, and 10 μL of a ITK kinase solution at a 2-fold concentration were mixed within a well of a 384 well plate, and incubated at room temperature for 30 minutes. Continuously, 5 μL of a substrate peptide (Srctide, PEPTIDE INSTITUTE, INC. #AD-995)/ATP/MgCl2 solution at a 4-fold concentration was added thereto to perform the reaction at room temperature for 1 hour. The substrate peptide was used at a final concentration of 1000 nM, ATP at a final concentration of 1000 μM, and MgCl2 at a final concentration of 5 mM. Thereafter, 60 μL of a termination buffer (127 mM HEPES, 0.01% Triton X-100, 26.7 mM EDTA, 1% DMSO, pH 7.5) was added thereto to stop the reaction. The ITK kinase activity was calculated by quantifying a product conversion ratio obtained from the substrate peptide peak height and the product (phosphorylated substrate peptide) peak height with LabChip3000 (PerkinElmer). […]

Turning to `C=CC(=O)N1CC[C@@H](Oc2nc(Nc3ccc(N4CCC(N5CCN(C)CC5)CC4)cc3)c(C(N)=O)nc2CC)C1` [test compound B, 5-{[(3R)-1-acryloylpyrrolidin-3-yl]oxy}-6-ethyl-3-({4-[4-(4-methylpiperazin-1-yl)piperidin-1-yl]phenyl}amino)pyrazine-2-carboxamide monomethanesulfonate], the inhibition at 0.001 µM (1 nM test compound) is 29.5%. Also, the inhibition at 0.01 µM (10 nM test compound) worked out at 92.6%.
